For this series, the target named is HSD17B13. The note with it: ASO, HepaRG.

These results are taken from the OligoGym collection.

Where “and” joins values, the source holds several entries; their conditions need not be identical. Identical values can stand only once. After the bases stand the sugars from the 5' end (letter, count) and the backbone: PS all phosphorothioate, else s phosphorothioate and o phosphodiester by linkage. Methylation of C is not given here. e = 2'-O-(2-methoxyethyl) (MOE); k = constrained ethyl (cEt); d = 2'-deoxy (DNA); m = 2'-O-methyl

On to ATTATTCACCACGATT (sugars k3 d10 k3, PS), for which the target mRNA inhibition (1 µM) was 29%. In turn, ATTCACATATGTGAAG (sugars k3 d10 k3, PS) registered a target mRNA inhibition (1 µM) of 0%. With ATTCTAAACTAGTGGT (sugars k3 d10 k3, PS), the target mRNA inhibition (1 µM) is 39%. For the sequence ATTCTGTGTTCTTGTT (sugars k3 d10 k3, PS), under “1 µM”, the target mRNA inhibition amounted to 67%. As for “ATTCUGTGGCATGGCT (sugars k3 d1 m1 d8 k3, PS)”, the target mRNA inhibition (1 µM) worked out at 59%. As to ATTGAGATGACAGTGG (sugars k3 d10 k3, PS), the target mRNA inhibition by setting is: (0.02 µM) 21%; (0.078 µM) 40%; (0.313 µM) 64%; (1 µM) 70%; (1.25 µM) 77%; (5 µM) 91%.

Take ATTGCATAAGAGCCAA (sugars k3 d10 k3, PS): under “1 µM”, the target mRNA inhibition was found to be 67%. “ATTGTCTAAACATCTC (sugars kkdddddddddkekek, PS)” registered a target mRNA inhibition (1 µM) of 62%.

Sequence “ATTGUCTAAACATCTC (sugars k3 d1 m1 d8 k3, PS)” gave a target mRNA inhibition (1 µM) of 73%. For the setting “1 µM”, ATTTAGCATTGCCTGT (sugars k3 d10 k3, PS) came in with a target mRNA inhibition of 10%.

CAAAAGACTTTGAGAC (sugars k3 d10 k3, PS) returned a target mRNA inhibition (1 µM) of 22%.

Under “1 µM”, “CAAAAGACTTTGAGAC (sugars kkdddddddddkekek, PS)” had a target mRNA inhibition of 32%.

CAAAATGGTGGCGAGG (sugars k3 d10 k3, PS) returned a target mRNA inhibition (1 µM) of 10%. CAAAGATCTGGCCAGT (sugars k3 d10 k3, PS): the target mRNA inhibition (1 µM) is 1%. As for CAAATTTGCTGGAACT (sugars k3 d10 k3, PS), the target mRNA inhibition (1 µM) stood at 39%. Still for that read-out and setting: the same measure for CAACCAAACTTCCAGC (sugars k3 d10 k3, PS): 72%; for CAAGACAGACTGTTGA (sugars k3 d10 k3, PS): 39%; for CAAGAGGATAGTCCAT (sugars k3 d10 k3, PS): 58%. In turn, CAAGATTAGTCTTGAT (sugars k3 d10 k3, PS) came in with a target mRNA inhibition (1 µM) of 27%. On to CAAGGAGTACTTCACA (sugars k3 d10 k3, PS), for which, for the setting “1 µM”, the target mRNA inhibition came out at 66%. Sequence CAAGGAGTATGACAAC (sugars k3 d10 k3, PS) came in with a target mRNA inhibition (1 µM) of 6%. The same measure, in the same setting: then CAAGTGACAGCATTGA (sugars k3 d10 k3, PS), with 48%; and CAAGTTTGTTCATAGT (sugars k3 d10 k3, PS), with 78%; and CAATCTAGCAACCTCT (sugars k3 d10 k3, PS), with 51%. CAATGGTTGATAGTTT (sugars k3 d10 k3, PS) registered a target mRNA inhibition (1 µM) of 47%. The sequence CAATTATATGAGGTCT (sugars k3 d10 k3, PS) returned a target mRNA inhibition (1 µM) of 36%. For the sequence CAATTGCTCTATAGAT (sugars k3 d10 k3, PS), the target mRNA inhibition (1 µM) came to 15%. Still for that read-out and setting: then “CACAAGTAAGGTAAAG (sugars k3 d1 m1 d8 k3, PS)”, with 43%. CACAATCTAGCAACCT (sugars k3 d10 k3, PS): the target mRNA inhibition (1 µM) stood at 40%. In turn, CACACCGCGCTTATTA (sugars k3 d10 k3, PS) returned a target mRNA inhibition (1 µM) of 11%. On to “CACATATGTGAAGAGC (sugars kkdddddddddkekek, PS)”, for which the target mRNA inhibition (1 µM) was determined as 53%. As for CACCAACGACTCCAAG (sugars k3 d10 k3, PS), the target mRNA inhibition (1 µM) came to 16%. Same read-out and setting: then CACCTGATTTAGAGAG (sugars k3 d10 k3, PS), with 11%; and CACCTTATTAATATCC (sugars k3 d10 k3, PS), with 34%; and CACGAAGCCTGAATGC (sugars k3 d10 k3, PS), with 24%.

Turning to CACTATCAGAACAGTT (sugars k3 d10 k3, PS), the target mRNA inhibition (1 µM) was determined as 24%. Sequence CACTTTCACTGGGTGT (sugars k3 d10 k3, PS) gave a target mRNA inhibition (1 µM) of 7%. On to CAGAAAGTTCATTCGA (sugars k3 d10 k3, PS), for which the target mRNA inhibition (1 µM) was determined as 67%. CAGAAGGATTTCTAGG (sugars k3 d10 k3, PS) had a target mRNA inhibition (1 µM) of 43%. For CAGACCTATGAAAAAC (sugars k3 d10 k3, PS), the target mRNA inhibition (1 µM) stood at 26%. Same read-out and setting: the same measure for “CAGAGACATGAGGTTT (sugars kkdddddddddkekek, PS)”: 61%; for “CAGATTGGAATGCTAC (sugars kkdddddddddkekek, PS)”: 57%. Take “CAGCATCAAGACATTC (sugars k3 d1 m1 d8 k3, PS)”: the target mRNA inhibition (1 µM) worked out at 52%. With “CAGCATTGATTCGAAA (sugars kkdddddddddkekek, PS)”, where the note is “1 µM”, the target mRNA inhibition is 58%.

Regarding CAGGAATGCATAAGAG (sugars k3 d10 k3, PS), the target mRNA inhibition (1 µM) is 33%. In the case of “CAGGUTGAGATAAAGC (sugars k3 d1 m1 d8 k3, PS)”, the target mRNA inhibition (1 µM) came to 55%.

For CAGTACAGTTCCTTTT (sugars k3 d10 k3, PS), the target mRNA inhibition (1 µM) was determined as 43%. In the case of CAGTAGGCAGTTTCTC (sugars k3 d10 k3, PS), the target mRNA inhibition (0.02 µM) turned out to be 0%; the target mRNA inhibition (0.078 µM) was found to be 0%; the target mRNA inhibition (0.313 µM) stood at 30%; the target mRNA inhibition (1 µM) was 72% and 50%; the target mRNA inhibition (1.25 µM) amounted to 55%; the target mRNA inhibition (5 µM) turned out to be 86%.

The sequence CAGTCTTAAACCTTCC (sugars k3 d10 k3, PS) came in with a target mRNA inhibition (1 µM) of 70%. Regarding CAGTTATTAGAAGTCA (sugars k3 d10 k3, PS), the target mRNA inhibition by setting is: (0.02 µM) 0%; (0.078 µM) 0%; (0.313 µM) 0%; (1 µM) 85%; (1.25 µM) 56%; (5 µM) 88%.

The sequence CAGTTTAGATTGCATA (sugars k3 d10 k3, PS) registered a target mRNA inhibition (1 µM) of 60%. Where the note is “1 µM”, “CAGTTTTCCTCATGAT (sugars kkdddddddddkekek, PS)” displayed a target mRNA inhibition of 59%.

Consider CATAAAAATCGCTGCT (sugars k3 d10 k3, PS), for which the target mRNA inhibition (1 µM) is 45%. Same read-out and setting: then CATAAAGGTGGGATAA (sugars k3 d10 k3, PS), with 23%. CATAACCTAATAACTA (sugars k3 d10 k3, PS): the target mRNA inhibition (1 µM) worked out at 10%. For the setting “1 µM”, “CATAACTTCATAGTGG (sugars k3 d9 k3 e1, PS)” came in with a target mRNA inhibition of 16%. Where the note is “1 µM”, CATAAGGCCGATTCAT (sugars k3 d10 k3, PS) gave a target mRNA inhibition of 32%. For CATAAGTAGTCTGCCT (sugars k3 d10 k3, PS), the target mRNA inhibition (1 µM) is 31%.

With CATAAGTTACCAGAGC (sugars k3 d10 k3, PS), the target mRNA inhibition turned out to be 26% (0.02 µM); 41% (0.078 µM); 63% (0.313 µM); 80% (1 µM); 86% (1.25 µM); 94% (5 µM).

Under “1 µM”, “CATAATAATAGCTCTA (sugars k3 d1 m1 d8 k3, PS)” returned a target mRNA inhibition of 33%. Sequence CATACCACTCTTCTCA (sugars k3 d10 k3, PS) gave a target mRNA inhibition (1 µM) of 24%. On to CATAGGACATGGAGAC (sugars k3 d10 k3, PS), for which the target mRNA inhibition is 0% (0.02 µM); 16% (0.078 µM); 37% (0.313 µM); 69% (1 µM); 58% (1.25 µM); 83% (5 µM). CATAGTGGACTTCATT (sugars k3 d10 k3, PS): the target mRNA inhibition (1 µM) was 34%. CATATACAGACTAAGG (sugars k3 d10 k3, PS) displayed a target mRNA inhibition (1 µM) of 57%.

The sequence CATATCCAGTAGGTGT (sugars k3 d10 k3, PS) returned a target mRNA inhibition (1 µM) of 37%.

As to CATATGGTGTACACTG (sugars k3 d10 k3, PS), the target mRNA inhibition (1 µM) was 15%.

Regarding “CATATGTGAAGAGCTG (sugars k3 d9 k3 e1, PS)”, the target mRNA inhibition (1 µM) was 50%. CATATGTGAAGAGCTG (sugars k3 d10 k3, PS) came in with a target mRNA inhibition (1 µM) of 25%. Regarding “CATAUGTGAAGAGCTG (sugars k3 d1 m1 d8 k3, PS)”, the target mRNA inhibition (1 µM) came out at 39%. CATCAAGACATTCTAG (sugars k3 d10 k3, PS) showed a target mRNA inhibition (1 µM) of 49%. Still for that read-out and setting: then CATCCTTGGTGCTGAG (sugars k3 d10 k3, PS), with 12%. In turn, CATCGATGGAAGAAGT (sugars k3 d10 k3, PS) had a target mRNA inhibition (1 µM) of 16%. As to CATCTAACTAACCTGA (sugars k3 d10 k3, PS), for the setting “1 µM”, the target mRNA inhibition was determined as 0%. Still for that read-out and setting: the same measure for CATCTAGAATTAAGGG (sugars k3 d10 k3, PS): 53%. With CATCTATCATGCCTTC (sugars k3 d10 k3, PS), the target mRNA inhibition (1 µM) was 18%. Regarding CATCTCTGGGACCAAG (sugars k3 d10 k3, PS), the target mRNA inhibition (1 µM) amounted to 51%. Regarding “CATCUCTGGGACCAAG (sugars k3 d1 m1 d8 k3, PS)”, the target mRNA inhibition (1 µM) stood at 42%. For the sequence CATTCGAATTTCTTCA (sugars k3 d10 k3, PS), the target mRNA inhibition was found to be 29% (0.02 µM); 53% (0.078 µM); 74% (0.313 µM); 77% (1 µM); 91% (1.25 µM); 97% (5 µM).

CATTCTAAACTACTAT (sugars k3 d10 k3, PS) registered a target mRNA inhibition (1 µM) of 11%. Under “1 µM”, CATTCTGTGTTCTTGT (sugars k3 d10 k3, PS) had a target mRNA inhibition of 60%.

For CATTGATTCGAAACTA (sugars k3 d10 k3, PS), under “1 µM”, the target mRNA inhibition came out at 40%. For the setting “1 µM”, CATTTAGAATACGCTG (sugars k3 d10 k3, PS) displayed a target mRNA inhibition of 25%. Regarding CCAAATCAGGTAGTTT (sugars k3 d10 k3, PS), the target mRNA inhibition (1 µM) came out at 13%.
